Source: publication PMC11474975, “Enzyme Dynamics Determine the Potency and Selectivity of Inhibitors Targeting Disease-Transmitting Mosquitoes” (ACS Infectious Diseases, 2024)
Like-named read-outs stand apart in the source and are kept apart here.

Key:
mAChE [1] = target: T1, mAChE (Mus musculus, UniProt P21836); experiment: mAChE inhibition, IC50 (Ellman assay); conditions: for S.R. (selectivity ratio) mAChE vs AgAChE1: IC50 mAChE / IC50 AgAChE1; for mAChE inhibitor class (Strong/Weak): class from experimental IC50
T1 sequence (P21836 32-614): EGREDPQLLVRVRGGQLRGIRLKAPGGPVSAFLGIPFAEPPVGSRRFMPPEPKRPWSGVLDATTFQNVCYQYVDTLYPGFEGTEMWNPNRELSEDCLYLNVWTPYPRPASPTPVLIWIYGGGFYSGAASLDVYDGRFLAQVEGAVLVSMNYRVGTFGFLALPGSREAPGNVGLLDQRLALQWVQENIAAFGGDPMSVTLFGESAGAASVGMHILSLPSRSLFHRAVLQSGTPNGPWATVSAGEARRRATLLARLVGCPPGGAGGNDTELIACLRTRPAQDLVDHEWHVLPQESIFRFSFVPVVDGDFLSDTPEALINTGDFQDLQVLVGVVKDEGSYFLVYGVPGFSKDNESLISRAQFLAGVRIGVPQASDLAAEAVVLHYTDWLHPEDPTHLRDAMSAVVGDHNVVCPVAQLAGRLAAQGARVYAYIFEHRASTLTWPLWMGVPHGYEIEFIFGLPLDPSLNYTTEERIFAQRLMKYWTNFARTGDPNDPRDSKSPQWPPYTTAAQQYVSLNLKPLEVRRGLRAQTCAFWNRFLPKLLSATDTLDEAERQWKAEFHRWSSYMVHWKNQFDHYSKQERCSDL
Method: Dilution series of eight concentrations were prepared (0.001–1000 and 0.1–1000 μM, respectively). Enzymatic activity was measured using the Ellman assay (adapted to a 96-well format) with secreted nonpurified protein in growth medium. A QIAgility robotic benchtop instrument (Qiagen) was used for automatic liquid handling when setting up assay plates. The assay was then performed at 30 °C in a final volume of 200 mL 0.1 M phosphate buffer (pH 7.4) containing 0.2 mM 5,5′-thiobis(2-nitrobenzoic acid) and 1 mM acetylcholine iodide. Changes in the wells’ absorbance at 412 nm were recorded over 60 s using a FlexStation 3 Multi-Mode Microplate Reader (Molecular Devices) to monitor the enzymatic reaction. Eight positive controls of uninhibited enzyme were assumed to represent 100% activity and used to determine the average slope. […] Nonlinear regression (curve fitting) in GraphPad Prism[54] was used to calculate IC50 values. The log[inhibitor] vs response variable slope equation was fitted using three parameters. Three independent replicates were used for the IC50 determination.

hAChE [2] = experiment: hAChE inhibition, IC50; type: biochemical, Homo sapiens
[3] = test system: AChE1 from Anopheles gambiae (AgAChE1); conditions: taken from previous publications; cited from earlier work
mAChE [4] = target: T1, mAChE; design: made in house; method as in PMID 30339371, PMID 27598521, PMID 22140425; conditions: taken from previous publications; cited from earlier work
[5] = test system: AChE1 from Anopheles gambiae (AgAChE1); experiment: AgAChE1 inhibition, IC50 (Ellman assay); type: biochemical; conditions: class from experimental IC50
hAChE [6] = conditions: taken from previous publications; cited from earlier work

## O=C(COc1ccc(-c2ccccc2)cc1)NCCCN1CCCCC1 [AL264]
mAChE [1]
  S.R. (selectivity ratio) mAChE vs AgAChE1: 6
  mAChE inhibitor class (Strong/Weak): Weak (strong and weak inhibitors of AgAChE1 from both classes (IC50 < 1 μM and IC50 > 5 μM, respectively)
hAChE [2]
  S.R. (selectivity ratio) hAChE vs AgAChE1: 6
[3]
  IC50: 10 µM
mAChE [4]
  IC50: 61 µM
[5]
  AgAChE1 inhibitor class (Strong/Weak): Weak (strong and weak inhibitors of AgAChE1 from both classes (IC50 < 1 μM and IC50 > 5 μM, respectively)
hAChE [6]
  IC50: 57 µM

## O=C(COc1ccc(Cl)cc1Cl)Nc1ccc(CN2CCCCC2)cc1 [AL137]
[3]
  IC50: 0.26 µM
[5]
  AgAChE1 inhibitor class (Strong/Weak): Strong (strong and weak inhibitors of AgAChE1 from both classes (IC50 < 1 μM and IC50 > 5 μM, respectively)

## CCN1CCN(C2CCN(C(=O)COc3ccc(-c4ccc(OC)cc4)cc3)CC2)CC1 [AL284]
mAChE [1]
  S.R. (selectivity ratio) mAChE vs AgAChE1: 73
  mAChE inhibitor class (Strong/Weak): Weak (strong and weak inhibitors of AgAChE1 from both classes (IC50 < 1 μM and IC50 > 5 μM, respectively)
hAChE [2]
  S.R. (selectivity ratio) hAChE vs AgAChE1: 45
[3]
  IC50: 0.4 µM
mAChE [4]
  IC50: 29 µM
[5]
  AgAChE1 inhibitor class (Strong/Weak): Strong (strong and weak inhibitors of AgAChE1 from both classes (IC50 < 1 μM and IC50 > 5 μM, respectively)
hAChE [6]
  IC50: 18 µM

## COc1ccc(NC(=S)NCCN2CCC(C)CC2)cc1Cl [AL201]
mAChE [1]
  IC50: 26 µM
  S.R. (selectivity ratio) mAChE vs AgAChE1: 27
  mAChE inhibitor class (Strong/Weak): Weak (strong and weak inhibitors of AgAChE1 from both classes (IC50 < 1 μM and IC50 > 5 μM, respectively)
hAChE [2]
  S.R. (selectivity ratio) hAChE vs AgAChE1: 13
[3]
  IC50: 0.96 µM
[5]
  AgAChE1 inhibitor class (Strong/Weak): Strong (strong and weak inhibitors of AgAChE1 from both classes (IC50 < 1 μM and IC50 > 5 μM, respectively)
hAChE [6]
  IC50: 12 µM

## COc1ccccc1NC(=S)NCCN(C)C [AL237]
mAChE [1]
  IC50: 217 µM
  S.R. (selectivity ratio) mAChE vs AgAChE1: 31
  mAChE inhibitor class (Strong/Weak): Weak (strong and weak inhibitors of AgAChE1 from both classes (IC50 < 1 μM and IC50 > 5 μM, respectively)
hAChE [2]
  S.R. (selectivity ratio) hAChE vs AgAChE1: 17
[3]
  IC50: 7.1 µM
[5]
  AgAChE1 inhibitor class (Strong/Weak): Weak (strong and weak inhibitors of AgAChE1 from both classes (IC50 < 1 μM and IC50 > 5 μM, respectively)
hAChE [6]
  IC50: 120 µM
